The values below come from patent publication US11814376B2, “Hepatitis b core protein modulators” (Assembly Biosciences, Inc., priority 2015, dated 2023).

The subject of data set [1] is AD38 cells. The data set is described as follows: Viability of AD38 cells (Promega CellTiter-Glo). The data set is classed as cell-based. The following applies: 10 μM compound, 6 days, CellTiter-Glo luminescence normalized to DMSO control (100%). A digest of the protocol:
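AD38 cells were seeded at 50,000/well on collagen-coated plates and treated with compound added as a 10× solution in 10% DMSO for 6 days at 37° C. Viability was measured by CellTiter-Glo luminescence in tetracycline-free medium with 2% FBS and 1% DMSO, and expressed as percent of DMSO control.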
Background: In ATP-based viability assays light output follows the ATP content of the culture.

In data set [2] the test system is HBV viral load in AD38 cells. The data set is described as follows: Viral load production in AD38 cells, quantitative PCR of the core sequence in supernatant. The data set is classed as cell-based. The following applies: Hepatitis B virus, 144 h, 10 μM compound, 6 days at 37° C., supernatant qPCR, relative to DMSO control; read-out: AD38 Viral Load (%) (VL with cmpd/VL in DMSO control) at 10 μM. Background: In qPCR the cycle at which signal appears reflects the starting amount.

For `CCCN1c2ccc(C(=O)NCc3cnc(-c4ccc(C#N)cc4)s3)cc2NC(=O)c2ccccc21` [compound 1917], in data set [1], the “AD38 Viability Normalized Result (cmpd/DMSO %) at 10 μM” value was 108%. The activity at 10 µM in data set [2] was 1.1%.

Turning to `CCN1c2ccc(C(=O)NCc3cnc(-c4ccc(C#N)cc4)s3)cc2NC(=O)c2ccccc21` [compound 1975], the “AD38 Viability Normalized Result (cmpd/DMSO %) at 10 μM” value in data set [1] stood at 63%. Besides, the activity at 10 µM in data set [2] amounted to 1%.

For the molecule `CC1(C)CCN(c2ncc(CNC(=O)c3ccc4c(c3)NC(=O)c3ccccc3S4(=O)=O)s2)C1` [compound 1981], the “AD38 Viability Normalized Result (cmpd/DMSO %) at 10 μM” value in data set [1] is listed as 105%. Also, in data set [2], the activity at 10 µM worked out at 0.2%.

As for `O=C(NCc1cnc(C(F)(F)F)s1)c1ccc2c(c1)NC(=O)c1ccccc1O2` [compound 1629], the “AD38 Viability Normalized Result (cmpd/DMSO %) at 10 μM” value in data set [1] worked out at 107%. In addition, the activity at 10 µM in data set [2] came to 3.2%.

For `COc1ccc(-c2ncc(CNC(=O)c3ccc4c(c3)NC(=O)c3ccccc3O4)s2)cn1` [compound 1705, N-((2-(6-methoxypyridin-3-yl)thiazol-5-yl)methyl)-11-oxo-10, 11-dihydrodibenzo [b, f] [1, 4] oxazepine-8-carboxamide], the “AD38 Viability Normalized Result (cmpd/DMSO %) at 10 μM” value in data set [1] is 93%. Moreover, in data set [2], the activity at 10 µM came to 3.7%.

As for `O=C1Nc2c(ccc(C(=O)NCc3cnc(C(F)(F)F)s3)c2Cl)S(=O)(=O)c2ccccc21` [compound 11082], in data set [1], the “AD38 Viability Normalized Result (cmpd/DMSO %) at 10 μM” value amounted to 95%. For the same molecule, the activity at 10 µM in data set [2] came out at 1.2%.

With `CN(C)c1ncc(CNC(=O)c2ccc3c(c2)NC(=O)c2ccccc2S3)s1` [compound 1425], the “AD38 Viability Normalized Result (cmpd/DMSO %) at 10 μM” value in data set [1] is reported as 100%. Further, the activity at 10 µM in data set [2] turned out to be 0.6%.

As for `CNc1ncc(CNC(=O)c2ccc3c(c2)NC(=O)c2ccccc2S3)s1` [compound 1424], the “AD38 Viability Normalized Result (cmpd/DMSO %) at 10 μM” value in data set [1] came to 97%. Also, in data set [2], the activity at 10 µM came out at 0.5%.

On to `O=C(NCc1cnc(-c2ccc3cnccc3c2)s1)c1ccc2c(c1)NC(=O)c1ccccc1S2(=O)=O` [compound 1820], for which the “AD38 Viability Normalized Result (cmpd/DMSO %) at 10 μM” value in data set [1] came out at 105%. The activity at 10 µM in data set [2] came to 3.2%.

`O=C(NCc1cnc(-c2ccc(N3CCCC3=O)cc2)s1)c1ccc2c(c1)NC(=O)c1ccccc1O2` [compound 1864]: the “AD38 Viability Normalized Result (cmpd/DMSO %) at 10 μM” value in data set [1] is 93%. In addition, the activity at 10 µM in data set [2] came to 3%.

With `O=C(NCc1cnc(-c2ccc(O)cc2)s1)c1ccc2c(c1)NC(=O)c1ccc(F)cc1S2` [compound 1747], the “AD38 Viability Normalized Result (cmpd/DMSO %) at 10 μM” value in data set [1] was found to be 95%. Besides, the activity at 10 µM in data set [2] worked out at 3%.

Consider `O=C(O)COc1ccc(-c2ncc(CNC(=O)c3ccc4c(c3)NC(=O)c3ccccc3S4(=O)=O)s2)cc1` [compound 1581, 2-(4-(5-((5,5-dioxido-11-oxo-10, 11-dihydrodibenzo [b, f] [1, 4]thiazepine-8-carboxamido)methyl)thiazol-2-yl)phenoxy) acetic acid], for which the “AD38 Viability Normalized Result (cmpd/DMSO %) at 10 μM” value in data set [1] was determined as 93%. Besides, the activity at 10 µM in data set [2] came out at 34.4%.

Regarding `O=C(O)CNc1ncc(CNC(=O)c2ccc3c(c2)NC(=O)c2ccccc2S3(=O)=O)s1` [compound 1583, (5-((5,5-dioxido-11-oxo-10, 11-dihydrodibenzo [b, f] [1, 4]thiazepine-8-carboxamido)methyl)thiazol-2-yl) glycine], the “AD38 Viability Normalized Result (cmpd/DMSO %) at 10 μM” value in data set [1] was 0%. The activity at 10 µM in data set [2] worked out at 1%.

Consider `CN1CCC[C@H]1COc1ccc(-c2ncc(CNC(=O)c3ccc4c(c3)NC(=O)c3ccccc3S4(=O)=O)s2)cc1` [compound 11135, (S)—N-((2-(4-((1-methylpyrrolidin-2-yl)methoxy)phenyl)thiazol-5-yl)methyl)-11-oxo-10,11-dihydrodibenzo [b, f] [1, 4] thiazepine-8-carboxamide 5,5-dioxide], for which the “AD38 Viability Normalized Result (cmpd/DMSO %) at 10 μM” value in data set [1] is 91%. Besides, in data set [2], the activity at 10 µM came out at 1.8%.

In the case of `N#Cc1ncc(CNC(=O)c2ccc3c(c2)NC(=O)c2ccccc2S3)s1` [compound 1627], in data set [1], the “AD38 Viability Normalized Result (cmpd/DMSO %) at 10 μM” value worked out at 63%. Also, the activity at 10 µM in data set [2] is 6%.

Regarding `CN(CCCCc1ccc(-c2ncc(CNC(=O)c3ccc4c(c3)NC(=O)c3ccccc3S4(=O)=O)s2)cc1)C1CC1` [compound 11094], in data set [1], the “AD38 Viability Normalized Result (cmpd/DMSO %) at 10 μM” value was 94%. The activity at 10 µM in data set [2] came to 0.6%.

As for `Cl.O=C(NCc1cnc(-c2ccc(C(=O)N3CCNCC3)cc2)s1)c1ccc2c(c1)NC(=O)c1ccccc1S2(=O)=O` [compound 11016, 11-oxo-N-((2-(4-(piperazine-1-carbonyl)phenyl)thiazol-5-yl)methyl)-10, 11-dihydrodibenzo [b, f] [1, 4] thiazepine-8-carboxamide 5,5-dioxide hydrochloride], in data set [1], the “AD38 Viability Normalized Result (cmpd/DMSO %) at 10 μM” value was determined as 106%. Further, in data set [2], the activity at 10 µM came to 38.8%.

For the molecule `O=C(NCc1cnc(-c2ccccc2)s1)c1ccc2c(c1)NC(=O)c1ccccc1S2(=O)=O` [compound 1525], the “AD38 Viability Normalized Result (cmpd/DMSO %) at 10 μM” value in data set [1] is given as 104%. The activity at 10 µM in data set [2] was found to be 0.2%.

With `COc1ccc(-c2ncc(CNC(=O)c3ccc4c(c3)NC(=O)c3ccccc3S4(=O)=O)s2)cc1C` [1804-A, N-((2-(4-methoxy-3-methylphenyl)thiazol-5-yl)methyl)-11-oxo-10, 11-dihydrodibenzo [b, f] [1, 4] thiazepine-8-carboxamide 5,5-dioxide], the “AD38 Viability Normalized Result (cmpd/DMSO %) at 10 μM” value in data set [1] was determined as 90%. Also, the activity at 10 µM in data set [2] amounted to 6.6%.

Regarding `CC(=O)NCCCOc1ccc(-c2ncc(CNC(=O)c3ccc4c(c3)NC(=O)c3ccccc3S4(=O)=O)s2)cc1` [compound 1991], in data set [1], the “AD38 Viability Normalized Result (cmpd/DMSO %) at 10 μM” value amounted to 98%. In data set [2], the activity at 10 µM stood at 2%.

On to `CS(=O)(=O)Nc1ccc(-c2ncc(CNC(=O)c3ccc4c(c3)NC(=O)c3ccccc3S4(=O)=O)s2)cc1` [compound 1857], for which, in data set [1], the “AD38 Viability Normalized Result (cmpd/DMSO %) at 10 μM” value stood at 107%. Also, the activity at 10 µM in data set [2] worked out at 1.5%.

Take `O=C(NCc1cnc(-c2ccc(OCCCN3CCCCC3)cc2)s1)c1ccc2c(c1)NC(=O)c1ccccc1S2(=O)=O` [compound 1992]: the “AD38 Viability Normalized Result (cmpd/DMSO %) at 10 μM” value in data set [1] is recorded as 89%. The activity at 10 µM in data set [2] was determined as 5%.

As to `O=C(NCc1cnc(-c2ccc(O)cc2)s1)c1ccc2c(c1)NC(=O)c1c(F)cccc1S2` [compound 1752], the “AD38 Viability Normalized Result (cmpd/DMSO %) at 10 μM” value in data set [1] is given as 98%. In data set [2], the activity at 10 µM came out at 29.8%.

Take `CN(C)CCCCOc1ccc(-c2ncc(CNC(=O)c3ccc4c(c3)NC(=O)c3ccccc3S4(=O)=O)s2)cc1` [compound 11001]: in data set [1], the “AD38 Viability Normalized Result (cmpd/DMSO %) at 10 μM” value is given as 77%. In addition, the activity at 10 µM in data set [2] was determined as 1.7%.

Consider `O=C(NCc1cnc(-n2cc(C(F)(F)F)cn2)s1)c1ccc2c(c1)NC(=O)c1ccccc1S2(=O)=O` [compound 11039], for which, in data set [1], the “AD38 Viability Normalized Result (cmpd/DMSO %) at 10 μM” value is reported as 92%. Besides, the activity at 10 µM in data set [2] came out at 1.9%.

For the molecule `CN1CCN(c2ncc(CNC(=O)c3ccc4c(c3)NC(=O)c3ccccc3S4(=O)=O)s2)CC1` [compound 1648], the “AD38 Viability Normalized Result (cmpd/DMSO %) at 10 μM” value in data set [1] was 95%. The activity at 10 µM in data set [2] came to 9.9%.

`O=C(NCc1cnc(-c2ccc3cnccc3c2)s1)c1ccc2c(c1)NC(=O)c1ccccc1O2` [compound 1832]: in data set [1], the “AD38 Viability Normalized Result (cmpd/DMSO %) at 10 μM” value was 98%. For the same molecule, in data set [2], the activity at 10 µM was 14.1%.

On to `O=C(NCc1cnc(-n2nccn2)s1)c1ccc2c(c1)NC(=O)c1ccccc1S2(=O)=O` [compound 11048], for which the “AD38 Viability Normalized Result (cmpd/DMSO %) at 10 μM” value in data set [1] is on record as 103%. Also, the activity at 10 µM in data set [2] came to 1.2%.

Take `O=C(NCc1cnc(-c2ccc(C(=O)NC3CC3)cc2)s1)c1ccc2c(c1)NC(=O)c1ccccc1S2(=O)=O` [compound 1949]: the “AD38 Viability Normalized Result (cmpd/DMSO %) at 10 μM” value in data set [1] is listed as 99%. The activity at 10 µM in data set [2] was 2.9%.

For the molecule `Cl.N=C(N)c1ccc(-c2ncc(CNC(=O)c3ccc4c(c3)NC(=O)c3ccccc3S4(=O)=O)s2)cc1` [compound 1653, N-((2-(4-carbamimidoylphenyl)thiazol-5-yl)methyl)-11-oxo-10, 11-dihydrodibenzo [b, f] [1, 4] thiazepine-8-carboxamide 5,5-dioxide hydrochloride], the “AD38 Viability Normalized Result (cmpd/DMSO %) at 10 μM” value in data set [1] was 108%. Also, the activity at 10 µM in data set [2] was 65.4%.

For `O=C(O)COc1ccc(-c2ncc(CNC(=O)c3ccc4c(c3)NC(=O)c3ccccc3O4)s2)cc1` [compound 1620, 2-(4-(5-((11-oxo-10, 11-dihydrodibenzo [b, f] [1, 4]oxazepine-8-carboxamido)methyl)thiazol-2-yl)phenoxy) acetic acid], the “AD38 Viability Normalized Result (cmpd/DMSO %) at 10 μM” value in data set [1] turned out to be 103%. The activity at 10 µM in data set [2] was found to be 41.9%.

Regarding `Cl.O=C(NCc1cnc(-c2ccc(OC[C@@H]3CCCN3)cc2)s1)c1ccc2c(c1)NC(=O)c1ccccc1S2(=O)=O` [compound 11029, (S)-11-oxo-N-((2-(4-(pyrrolidin-2-ylmethoxy)phenyl)thiazol-5-yl)methyl)-10, 11-dihydrodibenzo [b, f] [1, 4] thiazepine-8-carboxamide 5,5-dioxide hydrochloride], in data set [1], the “AD38 Viability Normalized Result (cmpd/DMSO %) at 10 μM” value worked out at 105%. For the same molecule, the activity at 10 µM in data set [2] was 5.3%.

As to `CN(C)CCOc1ncc(CN(C)C(=O)c2ccc3c(c2)NC(=O)c2ccccc2S3(=O)=O)s1` [compound 1660, N-((2-(2-(dimethylamino)ethoxy)thiazol-5-yl)methyl)-N-methyl-11-oxo-10, 11-dihydrodibenzo [b, f] [1, 4] thiazepine-8-carboxamide 5,5-dioxide], the “AD38 Viability Normalized Result (cmpd/DMSO %) at 10 μM” value in data set [1] is on record as 102%. The activity at 10 µM in data set [2] turned out to be 86.8%.

Turning to `O=C(NCc1cnc(-c2cc[nH]n2)s1)c1ccc2c(c1)NC(=O)c1ccccc1S2(=O)=O` [compound 1959], the “AD38 Viability Normalized Result (cmpd/DMSO %) at 10 μM” value in data set [1] is on record as 92%. In data set [2], the activity at 10 µM turned out to be 5%.
